Laboratory results published in ChEMBL document CHEMBL5215006, “Antitumor Activity of Piceamycin by Upregulation of N-Myc Downstream-Regulated Gene 1 in Human Colorectal Cancer Cells” (J Nat Prod, 2022).
Calls of active or inactive are those of the source. The calls are words filed in the database; no cut-off is given here.

How the values were obtained:
[1] = system: HCT-116; assay: Cell cycle arrest in human HCT-116 cells assessed as accumulation at G0/G1 phase at 0.075 uM incubated for 24 hrs by RNaseA/propidium iodide staining based flow cytometry (reference value: 48.44 %); assay type: functional
[2] = system: HCT-116; assay: Cell cycle arrest in human HCT-116 cells assessed as accumulation at G0/G1 phase at 0.15 uM incubated for 24 hrs by RNaseA/propidium iodide staining based flow cytometry (reference value: 48.44 %); assay type: functional
[3] = system: HCT-116; assay: Induction of apoptosis in human HCT-116 cells assessed as necrotic cells at 0.3 uM incubated for 48 hrs by Annexin V-FITC/PI staining based flow cytometry analysis (Rvb= 0.13%); assay type: functional
[4] = system: SW480; assay: Induction of apoptosis in human SW480 cells assessed as viable cells at 0.7 uM incubated for 48 hrs by Annexin V-FITC/PI staining based flow cytometry analysis (Rvb= 92.6%); assay type: functional; conditions: read-out: Activity
[5] = system: SW480; assay: Induction of apoptosis in human SW480 cells assessed as viable cells at 1.4 uM incubated for 48 hrs by Annexin V-FITC/PI staining based flow cytometry analysis (Rvb= 92.6%); assay type: functional; conditions: read-out: Activity
[6] = system: HCT-116; assay: Anti-migratory activity against human HCT-116 cells assessed as downregulation of Snail protein expression at 0.075 to 0.3 uM incubated for 24 hrs by immunoblotting assay; assay type: functional, cell-based; conditions: dose 0.075-0.3 µM
[7] = system: HCT-116; assay: Anti-migratory activity against highly liver metastatic human HCT-116 cells assessed as reduction in migration to 0.075 to 0.3 uM incubated for 24 hrs by wound healing assay; assay type: functional, cell-based; conditions: dose 0.075-0.3 µM, DDE = dose-dependent effect
[8] = system: HCT-116; assay: Antitumor activity against human HCT-116 cells assessed as decrease in c-Myc expression at 0.075 to 0.3 uM incubated for 24 hrs by immunoblotting assay; assay type: functional, cell-based; conditions: dose 0.075-0.3 µM
[9] = system: HCT-116; assay: Antitumor activity against human HCT-116 cells xenografted Balb/c mouse assessed as increase in NDRG1 protein expression at 1 mg/kg,ip administrated for 18 days by 3 times per week by immunoblotting assay; assay type: functional, organism-based; conditions: time 18.0 day

Work on `C[C@@H]1\C=C/C=C/C=C\C=C\C=C\C(=O)C2=C(O)C(=O)C[C@@]2(C)/C=C/C=C\C=C/C(=O)NC1` yielded an Activity [1] of 48.48%, an Activity [2] of 55.55% and an Activity [3] of 0.18%. The viability at 0.7 µM [4] was 69.8%, the viability at 1.4 µM [5] was 31% and the Activity [6] was “Active”. The Activity [7] was “Dde”, the Activity [8] was “Active” and the Activity [9] was “Active”.
